We go through 16 molecules from patent US9265253B2, “Use of macrocyclic picolinamides as fungicides” (DOW AGROSCIENCES LLC, priority 2013, dated 2016).

The test system of test [1] is Puccinia triticina; Synonym: Puccinia recondite f. Sp. Tritici. Put plainly: Wheat Brown Rust (PUCCRT) disease control. The note with it: Puccinia triticina, topical; for pest or weed control at 100 ppm: rate 100 ppm; for pest or weed control at 121.5 g/ha: rate 121.5 g/H. Type of test: in vivo. Summed up: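 Brown rust on first-leaf Yuma wheat: spore inoculation before or after spray application (acetone/Triton X-100 solution, or EC with Trycol in track spray), overnight 100% RH at 22 °C, disease developed at 24 °C. Severity scored 0–100% and converted to percent control against untreated.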

The subject of test [2] is Mycosphaerella graminicola; Anamorph: Septoria tritici. Put plainly: Leaf Blotch of Wheat (SEPTTR) disease control. Type of test: in vivo. To be noted: Zymoseptoria tritici; for pest or weed control at 100 ppm: rate 100 ppm; for pest or weed control at 121.5 g/ha: rate 121.5 g/H. The procedure, abridged: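 Wheat seedlings (Yuma, first leaf emerged) were sprayed to run-off with compound in acetone/water (1:9, 110 ppm Triton X-100) and inoculated with Septoria tritici spores before or after treatment. Disease severity (0–100%) was scored once untreated first leaves were fully symptomatic; control was calculated relative to untreated plants.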

Where [3] appears, read: 24 h, 1 Day Protectant, read-out: PUCCRT 1 DP disease control.
Setting [4] is: 72 h, 3 Day Curative, read-out: PUCCRT 3 DC disease control.
Where [5] appears, read: 24 h, 1 Day Protectant, read-out: SEPTTR 1 DP disease control.
Where [6] appears, read: 72 h, 3 Day Curative, read-out: SEPTTR 3 DC disease control.

Where two headings read alike, the source gives them in different places.

On to `COc1ccnc(C(=O)N[C@H]2CCC[C@H](CCC(C)C)[C@@H](Oc3ccccc3)[C@H](C)OC2=O)c1OCOC(=O)C(C)C` [Compound F147], for which the pest or weed control at 100 ppm in test [1] (setting [3]), in test [1] (setting [4]), in test [2] (setting [5]) and in test [2] (setting [6]) was 80 to 100% each time. In addition, the pest or weed control at 121.5 g/ha in test [1] (setting [3]) was 80 to 100%; in test [1] (setting [4]), 0 to 80%; in test [2] (setting [5]), 80 to 100%; in test [2] (setting [6]), 80 to 100%.

As for `COc1ccnc(C(=O)N[C@H]2CCC[C@H](CCC(C)C)[C@@H](OCC(C)C)[C@H](C)OC2=O)c1OCOC(=O)C(C)C` [Compound F148], the pest or weed control at 100 ppm in test [1] (setting [3]), in test [1] (setting [4]), in test [2] (setting [5]) and in test [2] (setting [6]) was 80 to 100% in each case. Also, the pest or weed control at 121.5 g/ha in test [1] (setting [3]), in test [1] (setting [4]), in test [2] (setting [5]) and in test [2] (setting [6]) was 80 to 100% throughout.

As to `COc1ccnc(C(=O)N[C@H]2CCC[C@H](CCC(C)C)[C@@H](OCCCC(F)(F)F)[C@H](C)OC2=O)c1OCOC(=O)C(C)C` [Compound F150], the pest or weed control at 100 ppm in test [1] (setting [3]), in test [1] (setting [4]), in test [2] (setting [5]) and in test [2] (setting [6]) was 80 to 100% throughout. Further, the pest or weed control at 121.5 g/ha was 80 to 100% in test [1] (setting [3]), 0 to 80% in test [1] (setting [4]), 80 to 100% in test [2] (setting [5]) and 80 to 100% in test [2] (setting [6]).

Consider `COCCC(=O)Oc1c(OC)ccnc1C(=O)N[C@H]1CCC[C@H](CC2CCCC2)[C@@H](Oc2ccccc2)[C@H](C)OC1=O` [Compound F153], for which the pest or weed control at 100 ppm in test [1] (setting [3]), in test [1] (setting [4]), in test [2] (setting [5]) and in test [2] (setting [6]) was 80 to 100% throughout. For the same molecule, the pest or weed control at 121.5 g/ha fell in the range of 80 to 100% in test [1] (setting [3]), 0 to 80% in test [1] (setting [4]), 80 to 100% in test [2] (setting [5]) and 80 to 100% in test [2] (setting [6]).

Regarding `COc1ccnc(C(=O)N[C@H]2CCC[C@H](CC3CCCC3)[C@@H](OCC3CC3)[C@H](C)OC2=O)c1OCOC(=O)C(C)C` [Compound F154, ((2-(((3S,7R,8R,9S)-7-(cyclopentylmethyl)-8-(cyclopropylmethoxy)-9-methyl-2-oxooxonan-3-yl)carbamoyl)-4-methoxypyridin-3-yl)oxy)methyl isobutyrate], the pest or weed control at 100 ppm in test [1] (setting [3]), in test [1] (setting [4]), in test [2] (setting [5]) and in test [2] (setting [6]) was 80 to 100% each time. Besides, the pest or weed control at 121.5 g/ha in test [1] (setting [3]), in test [1] (setting [4]), in test [2] (setting [5]) and in test [2] (setting [6]) was 80 to 100% in each case.

For `COc1ccnc(C(=O)N[C@H]2CCC[C@H](CCOCC3CC3)[C@@H](OCC3CC3)[C@H](C)OC2=O)c1OCOC(=O)C(C)C` [Compound F156], the pest or weed control at 100 ppm in test [1] (setting [3]) lay in the range of 80 to 100%; in test [1] (setting [4]) it was 80 to 100%; in test [2] (setting [5]), 0 to 80%; in test [2] (setting [6]), 0 to 80%. For the same molecule, the pest or weed control at 121.5 g/ha in test [1] (setting [3]) lay within 80 to 100%; in test [1] (setting [4]) it was 80 to 100%; in test [2] (setting [5]), 0 to 80%; in test [2] (setting [6]), 0 to 80%.

Take `CCOCC(=O)OCOc1c(OC)ccnc1C(=O)N[C@H]1CCC[C@H](CCC(C)C)[C@@H](Oc2ccccc2)[C@H](C)OC1=O` [Compound F158]: the pest or weed control at 100 ppm in test [1] (setting [3]), in test [1] (setting [4]), in test [2] (setting [5]) and in test [2] (setting [6]) was 80 to 100% each time. Further, the pest or weed control at 121.5 g/ha in test [1] (setting [3]) was 80 to 100%; in test [1] (setting [4]), 0 to 80%; in test [2] (setting [5]) it was 80 to 100%; in test [2] (setting [6]), 80 to 100%.

Turning to `CCOCC(=O)OCOc1c(OC)ccnc1C(=O)N[C@H]1CCC[C@H](CCC(C)C)[C@@H](OCC(C)C)[C@H](C)OC1=O` [Compound F159], the pest or weed control at 100 ppm in test [1] (setting [3]), in test [1] (setting [4]), in test [2] (setting [5]) and in test [2] (setting [6]) was 80 to 100% in each case. The pest or weed control at 121.5 g/ha fell in the range of 80 to 100% in test [1] (setting [3]), 0 to 80% in test [1] (setting [4]), 80 to 100% in test [2] (setting [5]) and 80 to 100% in test [2] (setting [6]).

Consider `CCOCC(=O)OCOc1c(OC)ccnc1C(=O)N[C@H]1CCC[C@H](CCC(C)C)[C@@H](OCCCC(F)(F)F)[C@H](C)OC1=O` [Compound F162], for which the pest or weed control at 100 ppm in test [1] (setting [3]), in test [1] (setting [4]), in test [2] (setting [5]) and in test [2] (setting [6]) was 80 to 100% each time. Moreover, the pest or weed control at 121.5 g/ha in test [1] (setting [3]) lay in the range of 80 to 100%; in test [1] (setting [4]), 0 to 80%; in test [2] (setting [5]), 80 to 100%; in test [2] (setting [6]), 80 to 100%.

Consider `CCOCC(=O)OCOc1c(OC)ccnc1C(=O)N[C@H]1CCC[C@H](CCC(C)C)[C@@H](OC)[C@H](C)OC1=O` [Compound F163], for which the pest or weed control at 100 ppm in test [1] (setting [3]) lay in the range of 80 to 100%; in test [1] (setting [4]) it was 0 to 80%; in test [2] (setting [5]) it was 80 to 100%; in test [2] (setting [6]), 80 to 100%. For the same molecule, the pest or weed control at 121.5 g/ha in test [1] (setting [3]) fell in the range of 0 to 80%; in test [1] (setting [4]) it was 0 to 80%; in test [2] (setting [5]) it was 80 to 100%; in test [2] (setting [6]), 0 to 80%.

`CCOCC(=O)OCOc1c(OC)ccnc1C(=O)N[C@H]1CCC[C@H](Cc2ccc(F)cc2)[C@@H](Oc2ccccc2)[C@H](C)OC1=O` [Compound F165]: the pest or weed control at 100 ppm in test [1] (setting [3]), in test [1] (setting [4]), in test [2] (setting [5]) and in test [2] (setting [6]) was 80 to 100% in each case. In addition, the pest or weed control at 121.5 g/ha in test [1] (setting [3]) lay in the range of 80 to 100%; in test [1] (setting [4]), 0 to 80%; in test [2] (setting [5]), 80 to 100%; in test [2] (setting [6]), 80 to 100%.

`CCOCC(=O)OCOc1c(OC)ccnc1C(=O)N[C@H]1CCC[C@H](Cc2ccc(F)cc2)[C@@H](OCC(F)F)[C@H](C)OC1=O` [Compound F169]: the pest or weed control at 100 ppm in test [1] (setting [3]) lay within 80 to 100%; in test [1] (setting [4]), 80 to 100%; in test [2] (setting [5]), 80 to 100%; in test [2] (setting [6]), 0 to 80%. Moreover, the pest or weed control at 121.5 g/ha in test [1] (setting [3]), in test [1] (setting [4]), in test [2] (setting [5]) and in test [2] (setting [6]) was 80 to 100% each time.

In the case of `CCOCC(=O)OCOc1c(OC)ccnc1C(=O)N[C@H]1CCC[C@H](Cc2ccc(F)cc2)[C@@H](OC(=O)C2CCCC2)[C@H](C)OC1=O` [Compound F170], the pest or weed control at 100 ppm in test [1] (setting [3]), in test [1] (setting [4]), in test [2] (setting [5]) and in test [2] (setting [6]) was 80 to 100% in each case. Besides, the pest or weed control at 121.5 g/ha in test [1] (setting [3]) lay in the range of 80 to 100%; in test [1] (setting [4]), 0 to 80%; in test [2] (setting [5]), 80 to 100%; in test [2] (setting [6]), 80 to 100%.

Consider `CCOCC(=O)OCOc1c(OC)ccnc1C(=O)N[C@H]1CCC[C@H](Cc2ccc(F)cc2)[C@@H](OC(=O)C(C)C)[C@H](C)OC1=O` [Compound F171], for which the pest or weed control at 100 ppm in test [1] (setting [3]), in test [1] (setting [4]), in test [2] (setting [5]) and in test [2] (setting [6]) was 80 to 100% throughout. Moreover, the pest or weed control at 121.5 g/ha lay within 80 to 100% in test [1] (setting [3]), 0 to 80% in test [1] (setting [4]), 80 to 100% in test [2] (setting [5]) and 80 to 100% in test [2] (setting [6]).

In the case of `CCOCC(=O)OCOc1c(OC)ccnc1C(=O)N[C@H]1CCC[C@H](CC2CCCC2)[C@@H](Oc2ccccc2)[C@H](C)OC1=O` [Compound F176], the pest or weed control at 100 ppm in test [1] (setting [3]), in test [1] (setting [4]), in test [2] (setting [5]) and in test [2] (setting [6]) was 80 to 100% throughout. For the same molecule, the pest or weed control at 121.5 g/ha fell in the range of 80 to 100% in test [1] (setting [3]), 0 to 80% in test [1] (setting [4]), 80 to 100% in test [2] (setting [5]) and 80 to 100% in test [2] (setting [6]).

As for `CCOCC(=O)OCOc1c(OC)ccnc1C(=O)N[C@H]1CCC[C@H](Cc2ccc(OC)cc2)[C@@H](OCC2CC2)[C@H](C)OC1=O` [Compound F177], the pest or weed control at 100 ppm in test [1] (setting [3]), in test [1] (setting [4]), in test [2] (setting [5]) and in test [2] (setting [6]) was 80 to 100% in each case. Besides, the pest or weed control at 121.5 g/ha in test [1] (setting [3]), in test [1] (setting [4]), in test [2] (setting [5]) and in test [2] (setting [6]) was 80 to 100% in each case.
